Results taken from patent US10538498B2, “1,3,4-oxadiazole sulfonamide derivative compounds as histone deacetylase 6 inhibitor, and the pharmaceutical composition comprising the same” (Chong Kun Dang Pharmaceutical Corp., priority 2015, dated 2020).

Target: T1, human recombinant HDAC6 (Homo sapiens, UniProt Q9UBN7)
T1 construct: purchased Calbiochem 382180
T1 sequence (Q9UBN7 1-1215): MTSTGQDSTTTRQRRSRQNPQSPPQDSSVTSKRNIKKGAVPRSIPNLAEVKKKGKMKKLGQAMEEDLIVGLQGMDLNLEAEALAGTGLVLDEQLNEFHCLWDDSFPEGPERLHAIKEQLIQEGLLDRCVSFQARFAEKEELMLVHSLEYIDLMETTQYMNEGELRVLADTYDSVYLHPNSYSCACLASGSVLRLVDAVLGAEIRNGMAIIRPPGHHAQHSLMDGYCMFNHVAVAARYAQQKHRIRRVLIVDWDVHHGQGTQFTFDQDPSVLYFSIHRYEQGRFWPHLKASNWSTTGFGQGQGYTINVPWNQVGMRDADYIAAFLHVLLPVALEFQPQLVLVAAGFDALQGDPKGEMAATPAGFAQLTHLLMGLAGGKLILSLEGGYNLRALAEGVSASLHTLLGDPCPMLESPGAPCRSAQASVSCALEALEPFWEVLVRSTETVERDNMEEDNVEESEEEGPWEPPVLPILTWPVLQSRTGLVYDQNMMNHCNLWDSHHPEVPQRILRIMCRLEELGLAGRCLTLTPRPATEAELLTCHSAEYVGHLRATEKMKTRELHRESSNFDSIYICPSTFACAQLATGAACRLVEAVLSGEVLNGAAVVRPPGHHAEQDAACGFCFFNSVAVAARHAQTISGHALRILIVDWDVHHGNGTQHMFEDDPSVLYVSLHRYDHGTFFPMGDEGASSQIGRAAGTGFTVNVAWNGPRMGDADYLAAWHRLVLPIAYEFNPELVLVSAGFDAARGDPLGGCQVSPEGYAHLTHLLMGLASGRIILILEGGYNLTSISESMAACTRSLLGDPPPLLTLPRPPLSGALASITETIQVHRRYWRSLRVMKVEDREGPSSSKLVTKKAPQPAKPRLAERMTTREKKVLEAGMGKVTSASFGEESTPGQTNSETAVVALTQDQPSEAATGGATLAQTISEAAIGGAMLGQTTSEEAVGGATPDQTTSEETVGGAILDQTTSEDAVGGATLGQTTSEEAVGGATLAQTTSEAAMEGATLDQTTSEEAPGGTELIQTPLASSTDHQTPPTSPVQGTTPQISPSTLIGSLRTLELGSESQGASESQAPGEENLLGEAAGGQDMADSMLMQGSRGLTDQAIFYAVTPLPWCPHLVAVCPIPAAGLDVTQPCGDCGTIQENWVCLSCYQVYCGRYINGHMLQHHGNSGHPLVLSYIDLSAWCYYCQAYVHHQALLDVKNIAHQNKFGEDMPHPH
Assay: HDAC6 enzyme activity inhibition assay (HDAC Fluorimetric Drug Discovery Kit)
Format: biochemical
Conditions: for HDAC6 selectivity (fold): HDAC1 vs HDAC6; for IC50: same protocol as the HDAC1 enzyme activity test
Summary of the method: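 IC50s derived from fluorescence (Ex 360, Em 460) read after a 30-min developer step. Beforehand, compounds in 5-fold dilution series reacted 60 min at 30° C with 0.3 μg human recombinant enzyme and 10 μM Fluor de Lys-SIRT1 substrate.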

| Compound | HDAC6 selectivity (fold) | IC50 |
| --- | --- | --- |
| CS(=O)(=O)N(Cc1ccc(-c2nnc(C(F)(F)F)o2)cc1F)c1ccccc1Cl [Compound 11279, N-(2-chlorophenyl)-N-(2-fluoro-4-(5-(trifluoromethyl)-1,3,4-oxadiazol-2-yl)benzyl)methanesulfonamide] | 901 fold | 111 nM |
| CS(=O)(=O)N(Cc1ccc(-c2nnc(C(F)F)o2)cc1F)c1ccccc1Cl [Compound 11280, N-(2-chlorophenyl)-N-(4-(5-(difluoromethyl)-1,3,4-oxadiazol-2-yl)-2-fluorobenzyl)methanesulfonamide] | 1266 fold | 79 nM |
| CS(=O)(=O)N(Cc1ccc(-c2nnc(C(F)F)o2)cc1F)c1ccc(Cl)cc1 [Compound 11281, N-(4-chlorophenyl)-N-(4-(5-(difluoromethyl)-1,3,4-oxadiazol-2-yl)-2-fluorobenzyl)methanesulfonamide] | 2273 fold | 44 nM |
| Cc1ccc(N(Cc2ccc(-c3nnc(C(F)(F)F)o3)cc2F)S(C)(=O)=O)cc1 [Compound 11282, N-(2-fluoro-4-(5-(trifluoromethyl)-1,3,4-oxadiazol-2-yl)benzyl)-N-(p-tolyl)methanesulfonamide] | 781 fold | 128 nM |
| Cc1ccc(N(Cc2ccc(-c3nnc(C(F)F)o3)cc2F)S(C)(=O)=O)cc1 [Compound 11283, N-(4-(5-(difluoromethyl)-1,3,4-oxadiazol-2-yl)-2-fluorobenzyl)-N-(p-tolyl)methanesulfonamide] | 1852 fold | 54 nM |
| CS(=O)(=O)N(Cc1ccc(-c2nnc(C(F)F)o2)cc1F)c1cncc(F)c1 [Compound 11284, N-(4-(5-(difluoromethyl)-1,3,4-oxadiazol-2-yl)-2-fluorobenzyl)-N-(5-fluoropyridin-3-yl)methanesulfonamide] | 3704 fold | 27 nM |
| COC(=O)CCS(=O)(=O)N(Cc1ccc(-c2nnc(C(F)F)o2)cc1F)c1ccccc1 [Compound 11287, methyl 3-(N-(4-(5-(difluoromethyl)-1,3,4-oxadiazol-2-yl)-2-fluorobenzyl)-N-phenylsulfamoyl)propanoate] | 3448 fold | 29 nM |
| COCC(C)CS(=O)(=O)N(Cc1ccc(-c2nnc(C(F)F)o2)cc1F)c1ccccc1 (stereo not shown) [Compound 11288] | 2128 fold | 47 nM |
| CCCS(=O)(=O)N(Cc1ccc(-c2nnc(C(F)F)o2)cc1F)c1ccccc1 [Compound 11289, N-(4-(5-(difluoromethyl)-1,3,4-oxadiazol-2-yl)-2-fluorobenzyl)-N-phenylpropane-1-sulfonamide] | 3571 fold | 28 nM |
| CCCCS(=O)(=O)N(Cc1ccc(-c2nnc(C(F)F)o2)cc1F)c1ccccc1 [Compound 11290, N-(4-(5-(difluoromethyl)-1,3,4-oxadiazol-2-yl)-2-fluorobenzyl)-N-phenylbutane-1-sulfonamide] | 2041 fold | 49 nM |
| O=S(=O)(C1CC1)N(Cc1ccc(-c2nnc(C(F)F)o2)cc1F)c1ccccc1 [Compound 11291, N-(4-(5-(difluoromethyl)-1,3,4-oxadiazol-2-yl)-2-fluorobenzyl)-N-phenylcyclopropanesulfonamide] | 3226 fold | 31 nM |
| CS(=O)(=O)N(Cc1ccc(-c2nnc(C(F)F)o2)cc1F)C1CCCCC1 [Compound 11292, N-cyclohexyl-N-(4-(5-(difluoromethyl)-1,3,4-oxadiazol-2-yl)-2-fluorobenzyl)methanesulfonamide] | 1786 fold | 56 nM |
| CS(=O)(=O)N(Cc1ccc(-c2nnc(C(F)(F)F)o2)cn1)c1cccc(C(F)(F)F)c1 [Compound 11323, N-((5-(5-(trifluoromethyl)-1,3,4-oxadiazol-2-yl)pyridin-2-yl)methyl)-N-(3-(trifluoromethyl)phenyl)methanesulfonamide] | 909 fold | 110 nM |
| CC(C)(C)OC(=O)N1CCC(N(Cc2ccc(-c3nnc(C(F)F)o3)cc2F)S(C)(=O)=O)CC1 [Compound 11338, tert-butyl 4-(N-(4-(5-(difluoromethyl)-1,3,4-oxadiazol-2-yl)-2-fluorobenzyl)methylsulfonamido)piperidine-1-carboxylate] | 195 fold | 513 nM |
| CS(=O)(=O)N(Cc1ccc(-c2nnc(C(F)F)o2)cn1)c1ccc2c(c1)OCO2 [Compound 11345, N-(benzo[d][1,3]dioxol-5-yl)-N-((5-(5-(difluoromethyl)-1,3,4-oxadiazol-2-yl)pyridin-2-yl)methyl)methanesulfonamide] | 3571 fold | 28 nM |
| CS(=O)(=O)N(Cc1ccc(-c2nnc(C(F)F)o2)cc1)c1ccc(Br)cn1 [Compound 11347, N-(5-bromopyridin-2-yl)-N-(4-(5-(difluoromethyl)-1,3,4-oxadiazol-2-yl)benzyl)methanesulfonamide] | 971 fold | 103 nM |
| CS(=O)(=O)N(Cc1ccc(-c2nnc(C(F)F)o2)cc1)c1ccc(Cl)cn1 [Compound 11348] | 758 fold | 132 nM |
| CS(=O)(=O)N(Cc1ccc(-c2nnc(C(F)F)o2)cn1)C1CCCCC1 [Compound 11351, N-cyclohexyl-N-((5-(5-(difluoromethyl)-1,3,4-oxadiazol-2-yl)pyridin-2-yl)methyl)methanesulfonamide] | 1449 fold | 69 nM |

These reach a lower IC50. Values come first.

| HDAC6 selectivity (fold) | IC50 | Compound |
| --- | --- | --- |
| 4762 fold | 21 nM | CS(=O)(=O)N(Cc1ccc(-c2nnc(C(F)F)o2)cn1)c1cccc(C(F)(F)F)c1 [Compound 11324, N-((5-(5-(difluoromethyl)-1,3,4-oxadiazol-2-yl)pyridin-2-yl)methyl)-N-(3-(trifluoromethyl)phenyl)methanesulfonamide] |
| 4348 fold | 23 nM | COc1ccc(N(Cc2ccc(-c3nnc(C(F)F)o3)cn2)S(C)(=O)=O)cc1 [Compound 11346, N-((5-(5-(difluoromethyl)-1,3,4-oxadiazol-2-yl)pyridin-2-yl)methyl)-N-(4-methoxyphenyl)methanesulfonamide] |
| 10000 fold | 10 nM | O=S1(=O)CCC(S(=O)(=O)N(Cc2ccc(-c3nnc(C(F)F)o3)cn2)c2ccccc2)CC1 [Compound 11350, N-((5-(5-(difluoromethyl)-1,3,4-oxadiazol-2-yl)pyridin-2-yl)methyl)-N-phenyltetrahydro-2H-thiopyran-4-sulfonamide 1,1-dioxide] |
| 12500 fold | 8 nM | CS(=O)(=O)N(Cc1ccc(-c2nnc(C(F)F)o2)cn1)c1cccc(Cl)c1 [Compound 11352, N-(3-chlorophenyl)-N-((5-(5-(difluoromethyl)-1,3,4-oxadiazol-2-yl)pyridin-2-yl)methyl)methanesulfonamide] |
| 3846 fold | 26 nM | CS(=O)(=O)N(Cc1ccc(-c2nnc(C(F)F)o2)cn1)c1cccnc1 [Compound 11353, N-((5-(5-(difluoromethyl)-1,3,4-oxadiazol-2-yl)pyridin-2-yl)methyl)-N-(pyridin-3-yl)methanesulfonamide] |
| 12500 fold | 8 nM | CS(=O)(=O)N(Cc1ccc(-c2nnc(C(F)F)o2)cn1)c1cccc(Br)c1 [Compound 11354, N-(3-bromophenyl)-N-((5-(5-(difluoromethyl)-1,3,4-oxadiazol-2-yl)pyridin-2-yl)methyl)methanesulfonamide] |
| 6250 fold | 16 nM | Cc1cccc(N(Cc2ccc(-c3nnc(C(F)F)o3)cn2)S(C)(=O)=O)c1 [Compound 11355, N-((5-(5-(difluoromethyl)-1,3,4-oxadiazol-2-yl)pyridin-2-yl)methyl)-N-(m-tolyl)methanesulfonamide] |
| 9091 fold | 11 nM | CCS(=O)(=O)N(Cc1ccc(-c2nnc(C(F)F)o2)cn1)c1cccc(Br)c1 [Compound 11366, N-(3-bromophenyl)-N-((5-(5-(difluoromethyl)-1,3,4-oxadiazol-2-yl)pyridin-2-yl)methyl)ethanesulfonamide] |
